Test results: ChEMBL document CHEMBL1154644 (J Med Chem, 2009)
Activity calls are given as the source filed them. No cut-off for these calls is given here.

What was measured:
[1] = molecular target: Phosphatidylinositol 4,5-bisphosphate 3-kinase catalytic subunit alpha isoform (Homo sapiens, UniProt P42336); experiment: Inhibition of PI3Kalpha by fluorescence polarization assay
[2] = molecular target: T1, Serine/threonine-protein kinase mTOR (Homo sapiens, UniProt P42345); experiment: Inhibition of human mTOR by DELFIA assay; type: single protein
[3] = Inhibition of AMPK at 2 uM
[4] = molecular target: T1, Serine/threonine-protein kinase mTOR; experiment: Inhibition of mTOR-mediated signaling in human A498 cells assessed as inhibition of mTORC2 biomarker measured after 6 hrs by immunoblotting; type: cell-based
[5] = molecular target: T1, Serine/threonine-protein kinase mTOR; experiment: Inhibition of human mTOR assessed as ATP competitive inhibition by Lineweaver-Burke double reciprocal dose-response plot
[6] = molecular target: Serine/threonine-protein kinase D3 (PRKD3/PKCν) (Homo sapiens) (UniProt O94806); experiment: Inhibition of PRKCN at 2 uM
[7] = molecular target: Serine/threonine-protein kinase 25 (Homo sapiens) (UniProt O00506); experiment: Inhibition of STK25 at 2 uM
[8] = molecular target: Tyrosine-protein kinase JAK2 (Homo sapiens) (UniProt O60674); experiment: Inhibition of JAK2 at 2 uM
[9] = molecular target: T1, Serine/threonine-protein kinase mTOR; experiment: Inhibition of mTOR-mediated signaling in human A498 cells assessed as inhibition of phosphorylation of 4EBP1 (T70) measured after 6 hrs by immunoblotting; type: cell-based
[10] = molecular target: T1, Serine/threonine-protein kinase mTOR; experiment: Inhibition of mTOR-mediated signaling in PTEN-negative, PI3K/AKT-hyperactive human U87MG cells assessed as inhibition of phosphorylation of S6K1(T389) measured after 6 hrs by immunoblotting; type: cell-based; settings: U-87MG ATCC
[11] = molecular target: T1, Serine/threonine-protein kinase mTOR; experiment: Inhibition of mTOR-mediated signaling in PTEN-negative, PI3K/AKT-hyperactive human U87MG cells assessed as inhibition of phosphorylation of AKT(T308) measured after 6 hrs by immunoblotting; type: cell-based; settings: U-87MG ATCC
[12] = molecular target: Dual specificity protein kinase CLK1 (Homo sapiens) (UniProt P49759); experiment: Inhibition of CLK1 at 2 uM
[13] = molecular target: BDNF/NT-3 growth factors receptor (Homo sapiens) (UniProt Q16620); experiment: Inhibition of NTRK2 at 2 uM
[14] = molecular target: T1, Serine/threonine-protein kinase mTOR; experiment: Inhibition of mTOR-mediated signaling in PTEN-negative, PI3K/AKT-hyperactive human U87MG cells assessed as inhibition of phosphorylation of AKT(S473) measured after 6 hrs by immunoblotting; type: cell-based; settings: U-87MG ATCC
[15] = molecular target: Fibroblast growth factor receptor 1 (Homo sapiens) (UniProt P11362); experiment: Inhibition of FGFR1 at 2 uM
[16] = molecular target: Serine/threonine-protein kinase PAK 2 (Homo sapiens) (UniProt Q13177); experiment: Inhibition of PAK2 at 2 uM
[17] = molecular target: Serine/threonine-protein kinase PAK 5 (Homo sapiens) (UniProt Q9P286); experiment: Inhibition of PAK7 at 2 uM
[18] = molecular target: Angiopoietin-1 receptor (Homo sapiens) (UniProt Q02763); experiment: Inhibition of TEK at 2 uM
[19] = molecular target: T2, Serine/threonine-protein kinase Sgk3 (Homo sapiens) (UniProt Q96BR1); experiment: Inhibition of SGKL at 2 uM
T2 sequence (whole entry): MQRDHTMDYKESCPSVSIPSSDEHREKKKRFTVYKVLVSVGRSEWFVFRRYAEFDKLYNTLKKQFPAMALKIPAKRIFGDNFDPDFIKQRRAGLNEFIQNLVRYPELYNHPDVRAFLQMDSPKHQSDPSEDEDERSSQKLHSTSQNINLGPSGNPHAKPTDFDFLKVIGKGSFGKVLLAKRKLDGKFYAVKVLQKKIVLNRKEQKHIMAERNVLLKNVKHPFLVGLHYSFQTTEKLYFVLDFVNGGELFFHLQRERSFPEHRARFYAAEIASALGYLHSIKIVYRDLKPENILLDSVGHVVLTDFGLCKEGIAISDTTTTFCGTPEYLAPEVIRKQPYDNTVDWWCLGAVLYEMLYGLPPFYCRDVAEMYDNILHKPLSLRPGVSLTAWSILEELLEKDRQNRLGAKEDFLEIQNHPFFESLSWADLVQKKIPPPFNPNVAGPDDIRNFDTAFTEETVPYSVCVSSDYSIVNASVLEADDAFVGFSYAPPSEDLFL

[20] = molecular target: Serine/threonine-protein kinase 26 (Homo sapiens) (UniProt Q9P289); experiment: Inhibition of MST4 at 2 uM
[21] = molecular target: Tyrosine-protein kinase CSK (Homo sapiens) (UniProt P41240); experiment: Inhibition of CSK at 2 uM
[22] = molecular target: T1, Serine/threonine-protein kinase mTOR; experiment: Inhibition of mTOR-mediated signaling in human A498 cells assessed as inhibition of phosphorylation of 4EBP1 (T37/46) measured after 6 hrs by immunoblotting; type: cell-based
[23] = molecular target: T1, Serine/threonine-protein kinase mTOR; experiment: Inhibition of mTOR-mediated signaling in human A498 cells assessed as inhibition of phosphorylation of AKT (S473) measured after 6 hrs by immunoblotting
[24] = molecular target: T1, Serine/threonine-protein kinase mTOR; experiment: Inhibition of mTOR-mediated signaling in PTEN-negative, PI3K/AKT-hyperactive human U87MG cells assessed as inhibition of PI3K/PDK1 measured after 6 hrs by immunoblotting; type: cell-based; settings: U-87MG ATCC
[25] = molecular target: T1, Serine/threonine-protein kinase mTOR; experiment: Inhibition of mTOR-mediated signaling in human A498 cells assessed as inhibition of phosphorylation of S6K1(T389) measured after 6 hrs by immunoblotting; type: cell-based
[26] = Selectivity for human mTOR over PI3Kalpha
[27] = Clearance in rat hepatocyte assessed as half life; type: ADME, cell-based, Liver; settings: hepatocytes

Chain of Phosphatidylinositol 4,5-bisphosphate 3-kinase catalytic subunit alpha isoform (P42336 whole entry, canonical isoform): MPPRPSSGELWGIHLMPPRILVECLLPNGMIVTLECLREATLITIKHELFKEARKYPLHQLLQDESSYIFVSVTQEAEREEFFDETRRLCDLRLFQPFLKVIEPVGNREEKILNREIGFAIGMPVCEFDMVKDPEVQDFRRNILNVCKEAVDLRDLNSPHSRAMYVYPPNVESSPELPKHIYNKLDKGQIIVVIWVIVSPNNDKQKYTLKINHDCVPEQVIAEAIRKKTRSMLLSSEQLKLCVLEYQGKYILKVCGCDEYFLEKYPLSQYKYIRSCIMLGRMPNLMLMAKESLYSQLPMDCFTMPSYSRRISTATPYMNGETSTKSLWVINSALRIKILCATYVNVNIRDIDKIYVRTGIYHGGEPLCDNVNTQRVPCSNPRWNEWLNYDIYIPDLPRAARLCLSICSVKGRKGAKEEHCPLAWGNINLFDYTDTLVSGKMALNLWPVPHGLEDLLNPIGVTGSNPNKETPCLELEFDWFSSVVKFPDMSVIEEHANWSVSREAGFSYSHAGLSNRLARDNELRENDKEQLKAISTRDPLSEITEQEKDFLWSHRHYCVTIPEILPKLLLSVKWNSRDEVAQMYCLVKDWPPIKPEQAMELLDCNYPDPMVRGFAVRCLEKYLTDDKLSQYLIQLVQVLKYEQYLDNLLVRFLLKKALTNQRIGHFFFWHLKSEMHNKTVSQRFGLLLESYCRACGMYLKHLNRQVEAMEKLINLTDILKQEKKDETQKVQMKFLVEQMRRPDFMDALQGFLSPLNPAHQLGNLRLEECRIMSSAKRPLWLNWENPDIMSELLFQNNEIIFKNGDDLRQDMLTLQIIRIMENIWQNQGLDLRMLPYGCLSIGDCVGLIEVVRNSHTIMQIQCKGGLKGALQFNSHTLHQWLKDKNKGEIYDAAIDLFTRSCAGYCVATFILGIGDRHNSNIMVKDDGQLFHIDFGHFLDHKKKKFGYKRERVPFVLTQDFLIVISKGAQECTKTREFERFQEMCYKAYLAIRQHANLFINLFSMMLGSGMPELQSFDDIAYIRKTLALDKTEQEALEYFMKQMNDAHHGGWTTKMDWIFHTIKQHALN
Chain of Tyrosine-protein kinase JAK2 (Homo sapiens) (O60674 whole entry): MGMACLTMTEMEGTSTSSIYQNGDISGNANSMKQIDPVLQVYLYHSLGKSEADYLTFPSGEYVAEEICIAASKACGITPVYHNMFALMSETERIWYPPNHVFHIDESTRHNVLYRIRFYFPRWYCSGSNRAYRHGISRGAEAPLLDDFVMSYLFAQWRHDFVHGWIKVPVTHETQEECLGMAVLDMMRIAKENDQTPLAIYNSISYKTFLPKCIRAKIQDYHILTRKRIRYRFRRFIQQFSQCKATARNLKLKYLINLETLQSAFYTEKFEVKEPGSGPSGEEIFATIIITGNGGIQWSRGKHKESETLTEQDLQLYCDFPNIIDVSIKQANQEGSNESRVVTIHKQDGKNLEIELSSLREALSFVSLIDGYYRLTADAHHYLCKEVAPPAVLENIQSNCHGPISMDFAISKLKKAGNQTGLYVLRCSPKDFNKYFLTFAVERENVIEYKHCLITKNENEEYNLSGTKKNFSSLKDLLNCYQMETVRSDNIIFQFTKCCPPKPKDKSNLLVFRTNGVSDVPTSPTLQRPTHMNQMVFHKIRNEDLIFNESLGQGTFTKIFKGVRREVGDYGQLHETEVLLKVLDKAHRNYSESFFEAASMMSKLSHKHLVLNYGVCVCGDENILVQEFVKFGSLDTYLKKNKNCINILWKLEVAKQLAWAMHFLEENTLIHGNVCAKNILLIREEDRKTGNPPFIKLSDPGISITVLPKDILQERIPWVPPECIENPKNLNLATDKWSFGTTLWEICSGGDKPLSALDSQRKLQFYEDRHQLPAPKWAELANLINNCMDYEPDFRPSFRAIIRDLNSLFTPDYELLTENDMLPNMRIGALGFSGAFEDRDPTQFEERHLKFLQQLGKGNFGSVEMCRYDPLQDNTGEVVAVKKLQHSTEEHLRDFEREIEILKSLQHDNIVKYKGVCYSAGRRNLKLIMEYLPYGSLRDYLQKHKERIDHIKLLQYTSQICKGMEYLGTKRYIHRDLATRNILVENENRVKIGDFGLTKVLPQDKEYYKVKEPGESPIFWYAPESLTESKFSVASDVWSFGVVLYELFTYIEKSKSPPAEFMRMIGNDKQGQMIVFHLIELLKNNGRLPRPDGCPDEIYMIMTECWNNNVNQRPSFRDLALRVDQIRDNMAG
Chain of Angiopoietin-1 receptor (Homo sapiens) (Q02763 whole entry): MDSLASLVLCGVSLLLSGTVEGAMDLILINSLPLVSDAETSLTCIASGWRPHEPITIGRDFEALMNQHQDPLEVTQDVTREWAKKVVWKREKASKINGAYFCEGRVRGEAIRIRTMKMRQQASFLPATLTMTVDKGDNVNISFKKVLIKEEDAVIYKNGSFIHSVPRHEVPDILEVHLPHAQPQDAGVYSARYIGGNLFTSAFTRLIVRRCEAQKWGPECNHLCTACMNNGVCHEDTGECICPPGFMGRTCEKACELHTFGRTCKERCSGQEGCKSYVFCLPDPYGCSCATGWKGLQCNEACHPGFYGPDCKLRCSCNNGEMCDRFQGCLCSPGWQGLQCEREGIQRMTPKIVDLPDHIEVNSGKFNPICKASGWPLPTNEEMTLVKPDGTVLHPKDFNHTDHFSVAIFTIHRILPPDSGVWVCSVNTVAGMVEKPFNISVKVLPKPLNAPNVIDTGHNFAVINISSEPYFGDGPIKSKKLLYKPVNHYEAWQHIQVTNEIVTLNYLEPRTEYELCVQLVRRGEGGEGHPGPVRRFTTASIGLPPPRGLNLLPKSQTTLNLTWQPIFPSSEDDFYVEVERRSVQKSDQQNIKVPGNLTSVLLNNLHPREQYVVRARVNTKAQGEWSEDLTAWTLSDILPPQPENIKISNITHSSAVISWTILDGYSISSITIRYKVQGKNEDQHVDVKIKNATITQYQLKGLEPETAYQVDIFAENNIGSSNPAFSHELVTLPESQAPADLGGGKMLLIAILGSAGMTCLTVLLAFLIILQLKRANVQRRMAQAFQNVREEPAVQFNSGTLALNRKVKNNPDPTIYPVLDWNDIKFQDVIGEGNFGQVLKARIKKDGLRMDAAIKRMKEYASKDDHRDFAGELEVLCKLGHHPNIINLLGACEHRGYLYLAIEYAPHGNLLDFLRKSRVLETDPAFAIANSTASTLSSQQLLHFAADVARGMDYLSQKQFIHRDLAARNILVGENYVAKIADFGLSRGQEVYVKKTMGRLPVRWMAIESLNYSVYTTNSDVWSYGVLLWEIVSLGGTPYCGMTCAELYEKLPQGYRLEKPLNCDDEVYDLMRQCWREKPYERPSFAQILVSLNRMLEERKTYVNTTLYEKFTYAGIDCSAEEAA
Chain of BDNF/NT-3 growth factors receptor (Homo sapiens) (Q16620 32-822 limits assumed): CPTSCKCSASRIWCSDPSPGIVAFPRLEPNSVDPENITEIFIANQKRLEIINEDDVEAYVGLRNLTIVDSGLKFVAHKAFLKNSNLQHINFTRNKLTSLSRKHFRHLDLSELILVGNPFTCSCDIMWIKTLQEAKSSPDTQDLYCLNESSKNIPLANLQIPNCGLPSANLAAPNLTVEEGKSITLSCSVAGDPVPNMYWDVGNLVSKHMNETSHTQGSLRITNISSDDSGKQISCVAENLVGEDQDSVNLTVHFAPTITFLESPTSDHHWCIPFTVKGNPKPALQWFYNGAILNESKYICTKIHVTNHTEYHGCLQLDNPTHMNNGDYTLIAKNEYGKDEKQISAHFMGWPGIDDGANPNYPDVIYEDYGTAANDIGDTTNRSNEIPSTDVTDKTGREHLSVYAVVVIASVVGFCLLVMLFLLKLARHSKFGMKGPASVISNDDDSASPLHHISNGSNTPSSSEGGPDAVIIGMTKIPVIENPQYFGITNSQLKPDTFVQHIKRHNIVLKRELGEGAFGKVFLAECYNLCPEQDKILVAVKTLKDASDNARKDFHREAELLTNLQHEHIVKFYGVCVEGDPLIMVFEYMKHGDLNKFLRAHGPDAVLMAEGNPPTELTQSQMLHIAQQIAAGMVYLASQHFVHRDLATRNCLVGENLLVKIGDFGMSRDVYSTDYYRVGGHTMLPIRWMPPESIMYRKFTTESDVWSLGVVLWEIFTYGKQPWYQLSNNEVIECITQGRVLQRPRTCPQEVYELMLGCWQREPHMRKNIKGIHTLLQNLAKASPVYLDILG
Chain of Serine/threonine-protein kinase 26 (Homo sapiens) (Q9P289 2-416 limits assumed): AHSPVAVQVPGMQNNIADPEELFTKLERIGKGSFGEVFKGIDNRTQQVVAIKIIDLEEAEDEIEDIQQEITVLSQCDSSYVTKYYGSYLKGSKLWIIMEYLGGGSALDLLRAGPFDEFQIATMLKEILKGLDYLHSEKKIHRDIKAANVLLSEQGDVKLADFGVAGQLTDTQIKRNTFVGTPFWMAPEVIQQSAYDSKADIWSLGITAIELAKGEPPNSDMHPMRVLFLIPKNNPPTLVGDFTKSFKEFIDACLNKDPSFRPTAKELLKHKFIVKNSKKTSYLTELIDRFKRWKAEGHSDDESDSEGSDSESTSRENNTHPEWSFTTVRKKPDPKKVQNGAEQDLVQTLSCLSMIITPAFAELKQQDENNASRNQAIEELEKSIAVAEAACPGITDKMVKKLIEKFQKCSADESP
Chain of Serine/threonine-protein kinase 25 (Homo sapiens) (O00506 whole entry, looked up): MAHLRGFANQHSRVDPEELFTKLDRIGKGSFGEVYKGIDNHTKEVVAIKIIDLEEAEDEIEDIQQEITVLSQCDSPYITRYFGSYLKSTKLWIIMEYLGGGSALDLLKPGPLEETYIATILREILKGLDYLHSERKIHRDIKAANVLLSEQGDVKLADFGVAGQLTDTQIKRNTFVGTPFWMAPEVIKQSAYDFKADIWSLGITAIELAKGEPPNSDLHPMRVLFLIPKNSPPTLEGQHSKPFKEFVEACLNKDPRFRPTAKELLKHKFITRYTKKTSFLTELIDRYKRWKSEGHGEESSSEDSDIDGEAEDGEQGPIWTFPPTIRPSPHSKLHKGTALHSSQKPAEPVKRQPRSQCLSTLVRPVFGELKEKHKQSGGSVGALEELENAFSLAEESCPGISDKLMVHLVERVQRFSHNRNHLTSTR

O=C(c1cccnc1)N1CCC(n2ncc3c(N4CCOCC4)nc(-c4ccc5[nH]ccc5c4)nc32)CC1
IC50 [1]: 5870 nM | IC50 [2]: 4 nM

c1cncc(CN2CCC(n3ncc4c(N5CCOCC5)nc(-c5ccc6[nH]ccc6c5)nc43)CC2)c1
inhibition [3]: 50% | Activity [4]: Dose-dependent effect | Activity [5]: Active | inhibition [6]: 50% | inhibition [7]: 50% | inhibition [8]: 50% | Activity [9]: Dose-dependent effect | Activity [10]: Active | Activity [11]: inactive | inhibition [12]: 50% | inhibition [13]: 50% | Activity [14]: Active | inhibition [15]: 50% | IC50 [2]: 9 nM | inhibition [16]: 50% | inhibition [17]: 50% | inhibition [18]: 50% | inhibition [19]: 50% | inhibition [20]: 50% | inhibition [21]: 50% | Activity [22]: Dose-dependent effect | Activity [23]: Dose-dependent effect | Activity [24]: inactive | Activity [25]: Dose-dependent effect

CO[C@H]1C[C@@H]2CC[C@@H](C)[C@@](O)(O2)C(=O)C(=O)N2CCCC[C@H]2C(=O)O[C@H]([C@H](C)C[C@@H]2CC[C@@H](O)[C@H](OC)C2)CC(=O)[C@H](C)/C=C(\C)[C@@H](O)[C@@H](OC)C(=O)[C@H](C)C[C@H](C)/C=C/C=C/C=C/1C
Activity [9]: Active | Activity [22]: inactive | Activity [23]: inactive | Activity [25]: Active

c1ccc(CN2CCC(n3ncc4c(N5CCOCC5)nc(-c5cnc6ccccc6c5)nc43)CC2)cc1
IC50 [2]: 120 nM

c1ccc(CN2CCC(n3ncc4c(N5CCOCC5)nc(-c5ccncc5)nc43)CC2)cc1
IC50 [2]: 7300 nM

Oc1cccc(-c2nc(N3CCOCC3)c3cnn(C4CCN(Cc5cccnc5)CC4)c3n2)c1
IC50 [2]: 10 nM

c1ccc(CN2CCC(n3ncc4c(N5CCOCC5)nc(-c5ccc6[nH]ccc6c5)nc43)CC2)cc1
IC50 [2]: 88 nM

O=C(c1cccnc1)N1CCC(n2ncc3c(N4CCOCC4)nc(-c4cccc(O)c4)nc32)CC1
IC50 [1]: 86 nM | IC50 [2]: 6 nM | fold change (FC) [26]: > 10

CC(=O)N1CCC(n2ncc3c(N4CCOCC4)nc(-c4cccc(O)c4)nc32)CC1
IC50 [2]: 49 nM

c1cc2cc(-c3nc(N4CCOCC4)c4cnn(C5CCNCC5)c4n3)ccc2[nH]1
IC50 [2]: 170 nM

Oc1ccccc1-c1nc(N2CCOCC2)c2cnn(C3CCN(Cc4ccccc4)CC3)c2n1
IC50 [2]: 1260 nM

O=c1[nH]c2ccc(-c3nc(N4CCOCC4)c4cnn(C5CCN(Cc6ccccc6)CC5)c4n3)cc2[nH]1
IC50 [2]: 190 nM | fold change (FC) [26]: > 20

c1ccc(CN2CCC(n3ncc4c(N5CCOCC5)nc(-c5ccc6ncccc6c5)nc43)CC2)cc1
IC50 [2]: 5950 nM

c1ccc(CN2CCC(n3ncc4c(N5CCOCC5)nc(-c5cccc6cc[nH]c56)nc43)CC2)cc1
IC50 [2]: 380 nM

Oc1cccc(-c2nc(N3CCOCC3)c3cnn(C4CCNCC4)c3n2)c1
IC50 [2]: 215 nM

c1ccc(CN2CCC(n3ncc4c(N5CCOCC5)nc(-c5cc6ccccc6[nH]5)nc43)CC2)cc1
IC50 [2]: 130 nM

c1ccc(CN2CCC(n3ncc4c(N5CCOCC5)nc(-c5ccc6cc[nH]c6c5)nc43)CC2)cc1
IC50 [2]: 230 nM

Oc1cccc(-c2nc(N3CCOCC3)c3cnn(C4CCN(Cc5ccccc5)CC4)c3n2)c1
half-life [27]: 13 min | IC50 [2]: 78 nM | fold change (FC) [26]: > 10

c1ccc(CN2CCC(n3ncc4c(N5CCOCC5)nc(-c5cccnc5)nc43)CC2)cc1
IC50 [2]: 695 nM

O=C(c1ccccc1)N1CCC(n2ncc3c(N4CCOCC4)nc(-c4cccc(O)c4)nc32)CC1
IC50 [1]: 50 nM | IC50 [2]: 4 nM

c1ccc(CN2CCC(n3ncc4c(N5CCOCC5)nc(-c5cccc6[nH]ccc56)nc43)CC2)cc1
IC50 [2]: 145 nM

Oc1ccc(-c2nc(N3CCOCC3)c3cnn(C4CCN(Cc5ccccc5)CC4)c3n2)cc1
IC50 [2]: 170 nM
